In ChEMBL document CHEMBL1142514, “Improved synthesis of 6-epi-dictyostatin and antitumor efficacy in mice bearing MDA-MB231 human breast cancer xenografts” (2008):

Tests used:
Type in all cases: functional
[1] = system: MDA-MB-231; experiment: Antitumor activity against human MDA-MB-231 cells xenografted in CB17 SCID mouse assessed as two tumor doubling time administered at 20 mg/kg, iv q7d in 3 schedule
[2] = system: MDA-MB-231; experiment: Antitumor activity against human MDA-MB-231 cells xenografted in CB17 SCID mouse assessed as ratio of median tumor volume for drug to vehicle administered at 20 mg/kg, iv q7d in 3 schedule after 17 days
[3] = system: MDA-MB-231; experiment: Antitumor activity against human MDA-MB-231 cells xenografted in CB17 SCID mouse assessed as ratio of median tumor volume for drug to control administered at 20 mg/kg, iv q7d in 3 schedule after 14 days
[4] = system: MDA-MB-231; experiment: Antitumor activity against human MDA-MB-231 cells xenografted in CB17 SCID mouse assessed as one tumor doubling time administered at 20 mg/kg, iv q7d in 3 schedule

`CC(=O)O[C@H]1C(=O)[C@@]2(C)[C@H]([C@H](OC(=O)c3ccccc3)[C@]3(O)C[C@H](OC(=O)[C@H](O)[C@@H](NC(=O)c4ccccc4)c4ccccc4)C(C)=C1C3(C)C)[C@]1(OC(C)=O)CO[C@@H]1C[C@@H]2O` [PACLITAXEL] was tested, and the Activity [1] was 19 days, the Activity [2] was 31% and the T/C [3] was 33%. For the same molecule, the Activity [4] was 7.9 days.
